In experiment [1] the test system is tumor cell lines of renal cancer. Put plainly: In vitro 3D combination study, clonogenic assay, both cell lines. It counts as cell-based. As to conditions: Homo sapiens, A498; compound alone, colony formation in soft agar, range over RXF 1183L and RXF A-498; read-out: Relative IC50, single agent. The protocol: (§1) The objective of this study was to assess anti-tumor efficacy of ketorolac in combination with sunitinib in a 5×5 matrix combination format against tumor cell lines of renal cancer using a clonogenic assay with image analysis as read-out.
(§2) The clonogenic assay was carried out in a 96 well plate format using ultra low attachment plates. For each test cells were prepared as described above, and assay plates were prepared as follows: each test well contained a layer of semi-solid medium with tumor cells (50 μl), and a second layer of medium supernatant with or without test compounds (100 μl). The cell layer consisted of 3×10^3 to 1×10^4 tumor cells per well, which were seeded in 50 μl/well cell culture medium (IMDM, supplemented with 20% (v/v) fetal calf serum, 0.01% (w/v) gentamicin, and 0.4% (w/v) agar). The soft agar layer was immediately covered with 90 μl of the same culture medium without agar. After 24 h the test compounds were added after serial dilution in IMDM and transfer in cell culture medium, and left on the cells for the duration of the experiment (continuous exposure, 100 μL total drug overlay). Every plate included six untreated control wells and drug-treated groups in a layout as shown above. […] At the time of maximum colony formation, counts were performed with an automatic image analysis system (Celllnsight NXT, Thermo Scientific). […]

Experiment [2] concerns ten selected renal cancer cell lines. Nature of the experiment: In vitro 2D assay, CellTiter-Blue Cell Viability Assay, whole panel. It is filed as cell-based, human. As to conditions: for IC50: Homo sapiens, geometric mean of ten cell lines, 96 h treatment. The protocol:
(§3) The objective of this study was to investigate the in-vitro anticancer activity of ketorolac. Antitumor activity was assessed in ten selected renal cancer cell lines by using the CellTiter-Blue Cell Viability Assay. The human renal cancer cell lines RXF 1183L, RXF 1220L, RXF 1781L, RXF 393L, RXF 486L, RXF 786-0, RXF A-498, RXF ACHN, RXF Caki-1 and RXF SN12C were used. RXF 1183L, RXF 1220L, RXF 1781L, RXF 393L and RXF 486L were established at Oncotest from the corresponding human patient-derived xenograft. The cell lines 786-0, A-498, Caki-1 and SN12C were purchased from NCI (National Cancer Institute, Bethesda, Md., USA). ACHN was purchased from ECACC (European Collection of Cell Cultures, Salisbury, UK). Authenticity of cell lines was confirmed at the DSMZ by STR (short tandem repeat) analysis, a PCR based DNA-fingerprinting methodology.
(§4) Cell lines were routinely passaged once or twice weekly and maintained in culture for up to 20 passages. All cells were grown at 37° C. in a humidified atmosphere with 5% CO2 in RPMI 1640 medium (25 mM HEPES, with L-glutamine, #FG1385, Biochrom, Berlin, Germany) supplemented with 10% (v/v) fetal calf serum (Sigma, Taufkirchen, Germany) and 0.1 mg/mL gentamicin (Life Technologies, Karlsruhe, Germany).
(§5) Ketorolac was dissolved at a concentration of 60 mM in cell culture media. Starting with this stock solution, dilutions were made using cell culture media resulting in final test concentrations of 12000, 7800, 6000, 4200, 3000, 1800, 600, 420, 180, 60 μM. Precipitation was not observed.
The CellTiter-Blue Cell Viability Assay was used according to manufacturer's instructions. Briefly, cells were harvested from exponential phase cultures, counted and plated in 96-well flat-bottom microtiter plates at a cell density of 4,000-12,000 cells/well depending on the cell line's growth rate. […] Following an incubation period of up to four hours, fluorescence (FU) was measured by using the Enspire Multimode Plate Reader (excitation λ=531 nm, emission λ=615 nm). […]
(Alamar Blue is a resazurin reagent that responds to reducing activity.)

A further experiment deals with RXF A-498. Nature of the experiment: In vitro 3D combination study, clonogenic assay, Bliss independence. It counts as cell-based, human. As to conditions: RXF A-498 cells seeded in soft agar, concentration-dependent. As to the method:
as §1, §2

The subject of a further experiment is RXF 1183L. The experiment is described as above. It counts as cell-based, human. As to conditions: RXF 1183L cells seeded in soft agar, concentration-dependent. The protocol:
as §1, §2

For experiment [3], the system named is 10 human tumor xenograft-derived cell suspensions or tumor cell lines of renal cancer. Nature of the experiment: In vitro 3D assay, clonogenic assay, whole panel. It counts as cell-based. As to conditions: geometric mean of 10 renal tumor models, 3D colony formation. As to the method: Ketorolac was characterized for its ability to inhibit anchorage independent growth and ex vivo colony formation of tumor cells in semi-solid medium. The compound was tested against 10 human tumor xenograft-derived cell suspensions or tumor cell lines of renal cancer.
Cell lines were routinely passaged one or twice weekly. […] The percentage of viable cells was determined in a Neubauer-hemocytometer using trypan blue exclusion.
Tumor xenografts (patient-derived, as well as cell line-derived xenografts) were passaged as subcutaneous xenografts in NMRI nu/nu mice. At a tumor volume of 400-1000 mm^3 tumor-bearing mice were sacrificed and tumors were collected under sterile conditions without delay according to the relevant Oncotest SOPs and the relevant animal welfare guidelines published by the FELASA and the GV-SOLAS. […] The percentage of viable cells was determined in a Neubauer-hemocytometer using trypan blue exclusion. Aliquots of the cells were frozen down, and stored in liquid nitrogen. On each day of an experiment, a frozen aliquot of tumor cells was thawed and used for preparation of assay plates.
The clonogenic assay was carried out in a 96 well plate format using ultra low attachment plates. […] Every plate included six untreated control wells and drug-treated groups in duplicate at 9 concentrations. […] At the time of maximum colony formation, counts were performed with an automatic image analysis system (Celllnsight NXT, Thermo Scientific). 48 hours prior to evaluation, vital colonies were stained with a sterile aqueous solution of 2-(4-iodophenyl)-3-(4-nitrophenyl)-5-phenyltetrazolium chloride (1 mg/ml, 100 μl/well).

For the next experiment, the system named is RXF ACHN. Nature of the experiment: In vitro 2D assay, CellTiter-Blue Cell Viability Assay. It is filed as cell-based. As to conditions: Homo sapiens, 96 h treatment. As to the method: as §3, §4, §5
(§6) The CellTiter-Blue Cell Viability Assay was used according to manufacturer's instructions. Briefly, cells were harvested from exponential phase cultures, counted and plated in 96-well flat-bottom microtiter plates at a cell density of 4,000-12,000 cells/well depending on the cell line's growth rate. After a 24 h recovery period to allow the cells to resume exponential growth, ketorolac was applied at 8 to 10 concentrations in duplicate and treatment continued for 96 h. After 96 h treatment of cells, 20 μL/well CellTiter-Blue® reagent was added. Following an incubation period of up to four hours, fluorescence (FU) was measured by using the Enspire Multimode Plate Reader (excitation λ=531 nm, emission λ=615 nm).
(§7) For calculations, the mean values of duplicate/quadruplicate (untreated control) data were used. Sigmoidal concentration-response curves were fitted to the data points (T/C values) obtained for each cell line using 4 parameter non-linear curve fit.

The test system of a further experiment is RXF 1781L. Described as above. It counts as cell-based. As to conditions: Homo sapiens, 96 h treatment. As to the method:
as §3, §4, §5, §6, §7

A further experiment has as its system RXF SN12C. Described as above. The following applies: Homo sapiens, 96 h treatment. It counts as cell-based. The protocol:
as §3, §4, §5, §6, §7

Data on one compound can be found in patent US10391080B2, “Ketorolac for the treatment of cancer” (Cipla Limited, priority 2016, dated 2019).

SMILES strings stand for the structures. Read-outs that look alike come from different tables or passages of the source.

Usually IC50 stands for the point on the concentration scale where inhibition reaches its midpoint. As to `O=C(c1ccccc1)c1ccc2n1CCC2C(=O)O` (racemic) [Ketorolac, (±)-5-benzoyl-2,3-dihydro-1H-pyrrolizine-1-carboxylic acid], the IC50 in experiment [1] was 589 to 1760 µM; in experiment [2] (read-out: Absolute IC50, geometric mean) it was 3240 µM; in experiment [2] (read-out: Relative IC50, geometric mean) it was 3760 µM; in experiment [3] (Homo sapiens, read-out: Absolute IC50, geometric mean) it was 2040 µM; in experiment [3] (Homo sapiens, read-out: Relative IC50, geometric mean (mean relative IC50)), 2040 µM; in experiment [3] (read-out: Relative IC50, geometric mean (mean relative IC50)), 2080 µM. Further, the IC50 with RXF ACHN (read-out: Absolute IC50) was 2800 µM; with RXF ACHN (read-out: Relative IC50), 3390 µM; in the experiment on RXF 1781L (read-out: Absolute IC50) it was 3820 µM; in the experiment with RXF 1781L (read-out: Relative IC50) it was 4440 µM; in the experiment with RXF SN12C (read-out: Absolute IC50), 2440 µM; in the experiment on RXF SN12C (read-out: Relative IC50), 2820 µM. The “Activity in all cell lines tested (concentration-effect curves)” value in experiment [2] (both runs, all cell lines tested) is given as “Concentration-dependent activity”. The “Colony formation, single agent” value in the experiment on RXF A-498 and with RXF 1183L was “inhibited colony formation” throughout.
